According to patent US8952024B2, “Herbicidal pyrimidone derivatives” (E I du Pont de Nemours and Company, priority 2009, dated 2015):

Assays:
Assay type in all cases: in vivo
[1] = tested on: wild oat (Avena fatua); assay: Test B pre-/postemergence plant response; details: for Oat, Wild plant response rating (0 to 100 scale): 0 is no effect
In short: (§1)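 Seeds were sown in loam soil/sand blend and treated preemergence with compound in non-phytotoxic solvent mixture containing surfactant; postemergence sprays, same formulation, went onto plants 2 to 18 cm (1- to 4-leaf stage) in peat-based planting medium. Greenhouse 13 to 15 days, then visual rating versus untreated controls, 0 (no effect) to 100 (complete control).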

[2] = tested on: wheat (Triticum aestivum); assay: Test B pre-/postemergence plant response; details: for Wheat plant response rating (0 to 100 scale): 0 is no effect
In short: as §1

[3] = tested on: soybean (Glycine max); assay: Test B pre-/postemergence plant response; details: for Soybean plant response rating (0 to 100 scale): 0 is no effect
In short: as §1

[4] = tested on: Surinam grass (Brachiaria decumbens); assay: Test B pre-/postemergence plant response; details: for Surinam Grass plant response rating (0 to 100 scale): 0 is no effect
In short: as §1

[5] = tested on: lambsquarters (Chenopodium album); assay: Test B pre-/postemergence plant response; details: for Lambsquarters plant response rating (0 to 100 scale): 0 is no effect
In short: as §1

[6] = tested on: kochia (Kochia scoparia); assay: Test B pre-/postemergence plant response; details: for Kochia plant response rating (0 to 100 scale): 0 is no effect, 13 to 15 days
In short: as §1

[7] = tested on: velvetleaf (Abutilon theophrasti); assay: Test B pre-/postemergence plant response; details: for Velvetleaf plant response rating (0 to 100 scale): 0 is no effect
In short: as §1

[8] = tested on: pigweed (Amaranthus retroflexus); assay: Test B pre-/postemergence plant response; details: for Pigweed plant response rating (0 to 100 scale): 0 is no effect
In short: as §1

[9] = tested on: blackgrass (Alopecurus myosuroides); assay: Test B pre-/postemergence plant response; details: for Blackgrass plant response rating (0 to 100 scale): 0 is no effect
In short: as §1

[10] = tested on: cocklebur (Xanthium strumarium); assay: Test B pre-/postemergence plant response; details: for Cocklebur plant response rating (0 to 100 scale): 0 is no effect
In short: as §1

[11] = tested on: windgrass (Apera spica-venti); assay: Test B postemergence plant response; details: for Windgrass plant response rating (0 to 100 scale): 0 is no effect
In short: (§2)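 Plants at the 1- to 4-leaf stage (2 to 18 cm tall), grown in pots of peat moss/vermiculite medium with wetting agent and starter nutrients, received postemergence applications of test chemicals. After 13 to 15 days in a greenhouse, injury was rated visually against untreated controls on a 0 (no effect) to 100 (complete control) scale.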

[12] = tested on: chickweed (Stellaria media); assay: Test B postemergence plant response; details: for Chickweed plant response rating (0 to 100 scale): 0 is no effect
In short: as §2

[13] = tested on: canarygrass (Phalaris minor); assay: Test B postemergence plant response; details: for Canarygrass plant response rating (0 to 100 scale): 0 is no effect
In short: as §2

[14] = 250 g ai/ha, Preemergence, 0 to 100 scale
[15] = Postemergence, 31 g ai/ha, scale 0 to 100 (0 no effect, 100 complete control)
[16] = Postemergence, 62 g ai/ha, scale 0 (no effect) to 100 (complete control), 13 to 15 days
[17] = Postemergence, 125 g ai/ha, visual rating after 13 to 15 days, scale 0 (no effect) to 100 (complete control)
[18] = Postemergence, 250 g ai/ha, scale 0 to 100
[19] = Preemergence, 31 g ai/ha, scale 0 to 100 (0 no effect, 100 complete control)
[20] = Preemergence, 62 g ai/ha, scale 0 to 100 (0 no effect, 100 complete control)
[21] = Preemergence, 125 g ai/ha, 0 to 100 scale
[22] = 31 g ai/ha, postemergence, scale 0 to 100, 0 is no effect, 100 is complete control
[23] = 62 g ai/ha, postemergence, 100 is complete control, 13 to 15 days
[24] = Postemergence, 125 g ai/ha, scale 0 to 100 (0 no effect, 100 complete control)
[25] = Postemergence, 250 g ai/ha, scale 0 to 100 (0 no effect, 100 complete control)
[26] = 62 g ai/ha, postemergence, 100 is complete control

O=C1CCCC(O)=C1C(=O)c1cnc(-c2ccccc2)n(-c2ccccc2F)c1=O [Compound 26]
Plant response rating, Oat, Wild [1, 14]: 5
Plant response rating, Oat, Wild [1, 15]: 40
Plant response rating, Oat, Wild [1, 16]: 40
Plant response rating, Oat, Wild [1, 17]: 45
Oat, Wild plant response rating [1, 18]: 60
Plant response rating, Oat, Wild [1, 19]: 0
Plant response rating, Oat, Wild [1, 20]: 0
Oat, Wild plant response rating [1, 21]: 0
Plant response rating, Wheat [2, 14]: 0
Plant response rating, Wheat [2, 15]: 0
Plant response rating, Wheat [2, 16]: 0
Plant response rating, Wheat [2, 17]: 5
Wheat plant response rating [2, 18]: 30
Plant response rating, Wheat [2, 19]: 0
Plant response rating, Wheat [2, 20]: 0
Wheat plant response rating [2, 21]: 0
Plant response rating, Soybean [3, 14]: 90
Plant response rating, Soybean [3, 15]: 95
Plant response rating, Soybean [3, 16]: 95
Plant response rating, Soybean [3, 17]: 95
Soybean plant response rating [3, 18]: 98
Plant response rating, Soybean [3, 19]: 50
Plant response rating, Soybean [3, 20]: 60
Soybean plant response rating [3, 21]: 80
Plant response rating, Surinam Grass [4, 14]: 90
Plant response rating, Surinam Grass [4, 15]: 30
Plant response rating, Surinam Grass [4, 16]: 40
Plant response rating, Surinam Grass [4, 17]: 60
Surinam Grass plant response rating [4, 18]: 60
Plant response rating, Surinam Grass [4, 19]: 0
Plant response rating, Surinam Grass [4, 20]: 5
Surinam Grass plant response rating [4, 21]: 90
Plant response rating, Lambsquarters [5, 14]: 100
Plant response rating, Lambsquarters [5, 15]: 80
Plant response rating, Lambsquarters [5, 16]: 90
Plant response rating, Lambsquarters [5, 17]: 90
Lambsquarters plant response rating [5, 18]: 98
Plant response rating, Lambsquarters [5, 19]: 98
Plant response rating, Lambsquarters [5, 20]: 100
Lambsquarters plant response rating [5, 21]: 100
Plant response rating, Kochia [6, 14]: 100
Plant response rating, Kochia [6, 19]: 80
Plant response rating, Kochia [6, 20]: 100
Kochia plant response rating [6, 21]: 100
Plant response rating, Velvetleaf [7, 14]: 100
Plant response rating, Velvetleaf [7, 15]: 70
Plant response rating, Velvetleaf [7, 16]: 70
Plant response rating, Velvetleaf [7, 17]: 95
Velvetleaf plant response rating [7, 18]: 98
Plant response rating, Velvetleaf [7, 19]: 50
Plant response rating, Velvetleaf [7, 20]: 90
Velvetleaf plant response rating [7, 21]: 100
Plant response rating, Pigweed [8, 14]: 100
Plant response rating, Pigweed [8, 15]: 50
Plant response rating, Pigweed [8, 16]: 80
Plant response rating, Pigweed [8, 17]: 85
Pigweed plant response rating [8, 18]: 98
Plant response rating, Pigweed [8, 19]: 98
Plant response rating, Pigweed [8, 20]: 100
Pigweed plant response rating [8, 21]: 100
Plant response rating, Blackgrass [9, 14]: 10
Plant response rating, Blackgrass [9, 15]: 0
Plant response rating, Blackgrass [9, 16]: 0
Plant response rating, Blackgrass [9, 17]: 10
Blackgrass plant response rating [9, 18]: 40
Plant response rating, Blackgrass [9, 19]: 0
Plant response rating, Blackgrass [9, 20]: 0
Blackgrass plant response rating [9, 21]: 0
Plant response rating, Cocklebur [10, 14]: 98
Plant response rating, Cocklebur [10, 15]: 80
Plant response rating, Cocklebur [10, 16]: 80
Plant response rating, Cocklebur [10, 17]: 95
Cocklebur plant response rating [10, 18]: 100
Plant response rating, Cocklebur [10, 19]: 10
Plant response rating, Cocklebur [10, 20]: 40
Cocklebur plant response rating [10, 21]: 85
Plant response rating, Windgrass [11, 15]: 10
Plant response rating, Windgrass [11, 16]: 30
Plant response rating, Windgrass [11, 17]: 40
Windgrass plant response rating [11, 18]: 60
Plant response rating, Chickweed [12, 15]: 40
Plant response rating, Chickweed [12, 16]: 50
Plant response rating, Chickweed [12, 17]: 85
Chickweed plant response rating [12, 18]: 85
Plant response rating, Canarygrass [13, 15]: 20
Plant response rating, Canarygrass [13, 16]: 30
Plant response rating, Canarygrass [13, 17]: 50
Canarygrass plant response rating [13, 18]: 60

COCCn1c(-c2cccc(C)c2)ncc(C(=O)C2=C(O)CCCC2=O)c1=O [Compound 117]
Plant response rating, Oat, Wild [1, 22]: 5
Oat, Wild plant response rating (0 to 100 scale) [1, 23]: 10
Plant response rating, Oat, Wild [1, 24]: 30
Plant response rating, Oat, Wild [1, 25]: 35
Wheat plant response rating (0 to 100 scale) [2, 23]: 5
Plant response rating, Wheat [2, 24]: 20
Soybean plant response rating (0 to 100 scale) [3, 23]: 80
Plant response rating, Soybean [3, 24]: 95
Plant response rating, Soybean [3, 25]: 95
Surinam Grass plant response rating (0 to 100 scale) [4, 23]: 75
Plant response rating, Surinam Grass [4, 25]: 85
Plant response rating, Lambsquarters [5, 22]: 95
Lambsquarters plant response rating (0 to 100 scale) [5, 23]: 98
Plant response rating, Lambsquarters [5, 24]: 100
Plant response rating, Lambsquarters [5, 25]: 100
Plant response rating, Kochia [6, 22]: 45
Kochia plant response rating (0 to 100 scale) [6, 26]: 50
Plant response rating, Kochia [6, 25]: 85
Velvetleaf plant response rating (0 to 100 scale) [7, 23]: 85
Plant response rating, Velvetleaf [7, 24]: 95
Plant response rating, Velvetleaf [7, 25]: 100
Plant response rating, Pigweed [8, 22]: 95
Pigweed plant response rating (0 to 100 scale) [8, 23]: 98
Plant response rating, Pigweed [8, 25]: 100
Plant response rating, Blackgrass [9, 22]: 0
Blackgrass plant response rating (0 to 100 scale) [9, 23]: 10
Plant response rating, Blackgrass [9, 24]: 40
Plant response rating, Blackgrass [9, 25]: 40
Plant response rating, Cocklebur [10, 22]: 75
Cocklebur plant response rating (0 to 100 scale) [10, 23]: 75
Plant response rating, Cocklebur [10, 24]: 98
Plant response rating, Cocklebur [10, 25]: 100
Windgrass plant response rating (0 to 100 scale) [11, 23]: 45
Plant response rating, Windgrass [11, 24]: 65
Plant response rating, Chickweed [12, 22]: 85
Chickweed plant response rating (0 to 100 scale) [12, 23]: 95
Plant response rating, Chickweed [12, 24]: 98
Plant response rating, Chickweed [12, 25]: 100
Plant response rating, Canarygrass [13, 22]: 0
Canarygrass plant response rating (0 to 100 scale) [13, 23]: 0
Plant response rating, Canarygrass [13, 24]: 5
Plant response rating, Canarygrass [13, 25]: 5

CCCCn1c(-c2ccccc2)ncc(C(=O)C2=C(O)CCCC2=O)c1=O [Compound 86]
Plant response rating, Oat, Wild [1, 22]: 20
Oat, Wild plant response rating (0 to 100 scale) [1, 23]: 50
Plant response rating, Oat, Wild [1, 25]: 80
Plant response rating, Wheat [2, 22]: 5
Wheat plant response rating (0 to 100 scale) [2, 23]: 35
Plant response rating, Wheat [2, 25]: 45
Plant response rating, Soybean [3, 22]: 80
Soybean plant response rating (0 to 100 scale) [3, 23]: 95
Plant response rating, Soybean [3, 25]: 98
Plant response rating, Surinam Grass [4, 22]: 80
Surinam Grass plant response rating (0 to 100 scale) [4, 23]: 95
Plant response rating, Surinam Grass [4, 25]: 100
Plant response rating, Lambsquarters [5, 22]: 100
Lambsquarters plant response rating (0 to 100 scale) [5, 23]: 100
Plant response rating, Lambsquarters [5, 25]: 100
Plant response rating, Kochia [6, 22]: 75
Kochia plant response rating (0 to 100 scale) [6, 26]: 85
Plant response rating, Kochia [6, 25]: 98
Plant response rating, Velvetleaf [7, 22]: 98
Velvetleaf plant response rating (0 to 100 scale) [7, 23]: 100
Plant response rating, Velvetleaf [7, 25]: 100
Plant response rating, Pigweed [8, 22]: 98
Pigweed plant response rating (0 to 100 scale) [8, 23]: 100
Plant response rating, Pigweed [8, 25]: 100
Plant response rating, Blackgrass [9, 22]: 15
Blackgrass plant response rating (0 to 100 scale) [9, 23]: 30
Plant response rating, Blackgrass [9, 17]: 45
Plant response rating, Blackgrass [9, 25]: 55
Plant response rating, Cocklebur [10, 22]: 85
Cocklebur plant response rating (0 to 100 scale) [10, 23]: 95
Plant response rating, Cocklebur [10, 17]: 95
Plant response rating, Cocklebur [10, 25]: 98
Plant response rating, Windgrass [11, 22]: 30
Windgrass plant response rating (0 to 100 scale) [11, 23]: 60
Plant response rating, Windgrass [11, 25]: 95
Plant response rating, Chickweed [12, 22]: 80
Chickweed plant response rating (0 to 100 scale) [12, 23]: 95
Plant response rating, Chickweed [12, 17]: 95
Plant response rating, Chickweed [12, 25]: 98
Plant response rating, Canarygrass [13, 22]: 20
Canarygrass plant response rating (0 to 100 scale) [13, 23]: 20
Plant response rating, Canarygrass [13, 17]: 80
Plant response rating, Canarygrass [13, 25]: 85
